Patent US20030004165A1, “Polyazanaphthalene compounds and pharmaceutical use thereof” (AJINOMOTO CO. INC, priority 1999, published 2003)

Tests used:
[1] = tested on: TNF α production by Balb/c mouse peritoneal cells; assay: Inhibition of LPS-induced TNF α production from mouse peritoneal cells; format: cell-based; settings: LPS 10 μg/ml stimulation, 16 to 18 hours, TNF α by sandwich ELISA
Protocol: Evaluation of Inhibiting Production of Tumor Necrosis Factors (TNF)
RPMI medium was injected into a peritoneal cavity of Balb/c mouse (Charles River Japan, Inc.) and the peritoneal cells were collected. The peritoneal cells were seeded on a 96-well plate in a concentration of 1×10^4 cells/well. 30 minutes after the addition of the subject pharmaceutical compounds in a proper concentration, LPS (sigma, L-5886) was added to each well so as to obtain the final concentration of 10 μg/ml. After culturing overnight (16 to 18 hours) again, a culture fluid was collected and the amount of TNF α in the culture fluid was determined. Mouse TNF α was determined by the means of a sandwitch ELISA and anti-mouse TNF a hamster monoclonal antibody (Genzyme 1221-00) was used as the first antibody, anti-mouse TNF α rabbit polyclonal antibody (Genzyme, IP-400) as the second antibody, and alkaliphosphatase conjugate anti-rabbit IgG polyclonal goat antibody as the third antibody. Then, optical absorbance of alkaliphosphatase substrate (p-nitrophosphate) was determined and converted into the production amount. When no stimulation was seen, the production amount was defined as 0% and when only […] stimulation was seen, the amount was defined as 100%.

[2] = tested on: MMP-3 (stromelysin-1) production by human joint normal synovial interstitial cells; assay: Inhibition of IL-1β-induced MMP-3 production from synovial cells; format: cell-based; settings: IL-1β 0.5 ng/ml stimulation, 16 to 18 hours, MMP-3 in culture fluid
Protocol: Evaluation of Inhibiting Production of Matrix Metalloprotease (MMP) Collected From Synovial Cells
The human joint normal synovial interstitial cells (cell System-SS cells, Dainippon Pharmaceutical Co., Ltd.) were seeded on a 96-well plate in a concentration of 1×10^4 cells/well and cultured overnight. 30 minutes after the addition of the subject pharmaceutical compounds in a proper concentration, IL-1β was added to each well so as to obtain the final concentration of 0.5 ng/ml. After culturing overnight (16 to 18 hours) again, a culture fluid was collected and the amount of MMP-3 (stromelysin-1) in the culture fluid was determined. MMP-3 was determined with a test kit for determining stromelysin-1 (SL) in serum (Fuji Chemical Industries Ltd.), in accordance with an instruction book attached to the kit. When no stimulation was seen, the production amount was defined as 0% and when only […] stimulation was seen, the amount was defined as 100%.

| Structure (SMILES) | TNF Inhibition Activity (IC50) [1] [µg/mL] | MMP Inhibition Activity (IC50) [2] [µg/mL] |
| --- | --- | --- |
| COc1ccc(-c2ccc3cnccc3n2)cc1OC [Example 24, 2-(3,4-Dimethoxyphenyl)-1,6-Naphthylidine] | 0.6 | 1.25 |
| COc1ccc(-c2cnc3ccncc3c2)cc1OC1CCCC1 [Example 26, 3-(3-Cyclopentyloxy-4-Methoxyphenyl)-1,6-Naphthylidine] | 0.01 | – |
| COc1ccc(-c2cnc3ncccc3c2)cc1OC [Example 23, 3-(3,4-Dimethoxyphenyl)-1,8-Naphthylidine] | 0.1 | – |
| COc1ccc(-c2cnc3ccncc3c2)cc1OC [Example 1, 3-(3,4-Dimethoxyphenyl)-1,6-Naphtylidine] | 0.5 | 1.25 |
| COc1ccc(-c2cnc3cc(N)ncc3c2)cc1OC.Cl [Example 18, 7-Amino-3-(3,4-Dimethoxyphenyl)-1,6-Naphthylidine Hydrochloride] | 0.6 | 0.31 |
| COc1ccc(-c2cnc3cnccc3c2)cc1OC [Example 22, 3-(3,4-Dimethoxyphenyl)-1,7-Naphthylidine] | 0.02 | 1.25 |
| COc1ccc(-c2cnc3ccnc(Cl)c3c2)cc1OC [Example 19, 5-Chloro-3-(3,4-Dimethoxyphenyl)-1,6-Naphthylidine] | 1 | – |
| COc1ccc(-c2cnc3ccnc(N)c3c2)cc1OC [Example 20, 5-Amino-3-(3,4-Dimethoxyphenyl)-1,6-Naphthylidine] | 0.3 | 0.16 |
